{"source": "PubChem BioAssay AID1963852", "about": "(Molecular Pharmacology Branch, DTP, NCI, 2024);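 note: spheroids exposed to compounds for seven days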;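 for viability, T/C: 100% = DMSO vehicle control viability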", "system": "282377-053-R-J1-PDC complex spheroid viability", "assay": "Anticancer human tumor 282377-053-R-J1-PDC patient-derived colon adenocarcinoma cell line growth inhibition [POLQ]", "conditions": "for IC50: curve of first compound; for viability, T/C: stronger effect = lower value", "outline": "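Complex spheroid viability model combining PDC tumour cells with endothelial (HUVEC) and MSC stromal cells. Novobiocin, ART-558 or RP6685 were tested singly and in combination with standard and investigational anticancer drugs. Each was titrated in half-log steps from near clinical Cmax, or from 10 microM where Cmax was unknown.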", "key": {"[1]": {"conditions": "second compound 0.0316 µM, first compound 0.0316 µM"}, "[2]": {"conditions": "second compound 0.0316 µM, first compound 0.1 µM"}, "[3]": {"conditions": "second compound 0.1 µM, first compound 0.0316 µM"}, "[4]": {"conditions": "second compound 0.1 µM, first compound 0.1 µM"}, "[5]": {"conditions": "second compound 0.316 µM, first compound 0.0316 µM"}, "[6]": {"conditions": "second compound 0.316 µM, first compound 0.1 µM"}, "[7]": {"conditions": "second compound 1 µM, first compound 0.0316 µM"}, "[8]": {"conditions": "second compound 1 µM, first compound 0.1 µM"}, "[9]": {"conditions": "second compound 3.16 µM, first compound 0.0316 µM"}, "[10]": {"conditions": "second compound 3.16 µM, first compound 0.1 µM"}, "[11]": {"conditions": "second compound 10 µM, first compound 0.0316 µM"}, "[12]": {"conditions": "second compound 10 µM, first compound 0.1 µM"}}}
{"smiles": "O=C(Nc1ccc(O)c(NS(=O)(=O)c2ccc(F)cc2)c1)c1ccc(-c2ccccc2)cc1", "note": "+ COC1C(OC(N)=O)C(O)C(Oc2ccc3c(O)c(NC(=O)c4ccc(O)c(CC=C(C)C)c4)c(=O)oc3c2C)OC1(C)C", "values": [{"measurement": "IC50", "setting": "second compound 0.0316 µM", "result": "> 10", "unit": "µM"}, {"measurement": "IC50", "setting": "second compound 0.1 µM", "result": "> 10", "unit": "µM"}, {"measurement": "IC50", "setting": "second compound 0.316 µM", "result": "> 10", "unit": "µM"}, {"measurement": "IC50", "setting": "second compound 1 µM", "result": "> 10", "unit": "µM"}, {"measurement": "IC50", "setting": "second compound 3.16 µM", "result": "> 10", "unit": "µM"}, {"measurement": "IC50", "setting": "second compound 10 µM", "result": "> 10", "unit": "µM"}, {"measurement": "viability, T/C", "setting": "[1]", "result": 120, "unit": "%"}, {"measurement": "viability, T/C", "setting": "[2]", "result": 117, "unit": "%"}, {"measurement": "viability, T/C", "setting": "second compound 0.0316 µM, first compound 0.316 µM", "result": 109, "unit": "%"}, {"measurement": "viability, T/C", "setting": "second compound 0.0316 µM, first compound 1 µM", "result": 113, "unit": "%"}, {"measurement": "viability, T/C", "setting": "second compound 0.0316 µM, first compound 3.16 µM", "result": 133, "unit": "%"}, {"measurement": "viability, T/C", "setting": "second compound 0.0316 µM, first compound 10 µM", "result": 94.5, "unit": "%"}, {"measurement": "viability, T/C", "setting": "[3]", "result": 122, "unit": "%"}, {"measurement": "viability, T/C", "setting": "[4]", "result": 125, "unit": "%"}, {"measurement": "viability, T/C", "setting": "second compound 0.1 µM, first compound 0.316 µM", "result": 117, "unit": "%"}, {"measurement": "viability, T/C", "setting": "second compound 0.1 µM, first compound 1 µM", "result": 127, "unit": "%"}, {"measurement": "viability, T/C", "setting": "second compound 0.1 µM, first compound 3.16 µM", "result": 127, "unit": "%"}, {"measurement": "viability, T/C", "setting": "second compound 0.1 µM, first compound 10 µM", "result": 97, "unit": "%"}, {"measurement": "viability, T/C", "setting": "[5]", "result": 115, "unit": "%"}, {"measurement": "viability, T/C", "setting": "[6]", "result": 108, "unit": "%"}, {"measurement": "viability, T/C", "setting": "second compound 0.316 µM, first compound 0.316 µM", "result": 100, "unit": "%"}, {"measurement": "viability, T/C", "setting": "second compound 0.316 µM, first compound 1 µM", "result": 108, "unit": "%"}, {"measurement": "viability, T/C", "setting": "second compound 0.316 µM, first compound 3.16 µM", "result": 112, "unit": "%"}, {"measurement": "viability, T/C", "setting": "second compound 0.316 µM, first compound 10 µM", "result": 94.5, "unit": "%"}, {"measurement": "viability, T/C", "setting": "[7]", "result": 116, "unit": "%"}, {"measurement": "viability, T/C", "setting": "[8]", "result": 99.6, "unit": "%"}, {"measurement": "viability, T/C", "setting": "second compound 1 µM, first compound 0.316 µM", "result": 118, "unit": "%"}, {"measurement": "viability, T/C", "setting": "second compound 1 µM, first compound 1 µM", "result": 115, "unit": "%"}, {"measurement": "viability, T/C", "setting": "second compound 1 µM, first compound 3.16 µM", "result": 120, "unit": "%"}, {"measurement": "viability, T/C", "setting": "second compound 1 µM, first compound 10 µM", "result": 122, "unit": "%"}, {"measurement": "viability, T/C", "setting": "[9]", "result": 98.2, "unit": "%"}, {"measurement": "viability, T/C", "setting": "[10]", "result": 118, "unit": "%"}, {"measurement": "viability, T/C", "setting": "second compound 3.16 µM, first compound 0.316 µM", "result": 106, "unit": "%"}, {"measurement": "viability, T/C", "setting": "second compound 3.16 µM, first compound 1 µM", "result": 114, "unit": "%"}, {"measurement": "viability, T/C", "setting": "second compound 3.16 µM, first compound 3.16 µM", "result": 99.8, "unit": "%"}, {"measurement": "viability, T/C", "setting": "second compound 3.16 µM, first compound 10 µM", "result": 104, "unit": "%"}, {"measurement": "viability, T/C", "setting": "[11]", "result": 127, "unit": "%"}, {"measurement": "viability, T/C", "setting": "[12]", "result": 95.3, "unit": "%"}, {"measurement": "viability, T/C", "setting": "second compound 10 µM, first compound 0.316 µM", "result": 94.9, "unit": "%"}, {"measurement": "viability, T/C", "setting": "second compound 10 µM, first compound 1 µM", "result": 127, "unit": "%"}, {"measurement": "viability, T/C", "setting": "second compound 10 µM, first compound 3.16 µM", "result": 104, "unit": "%"}, {"measurement": "viability, T/C", "setting": "second compound 10 µM, first compound 10 µM", "result": 93.5, "unit": "%"}]}
{"smiles": "CC[C@@]1(O)C(=O)OCc2c1cc1n(c2=O)Cc2cc3c(CN(C)C)c(O)ccc3nc2-1", "note": "+ Cc1cccc(N(C)C(=O)C2C(O)CCN2c2nc(C)cc(C(F)(F)F)c2C#N)c1", "values": [{"measurement": "IC50", "setting": "second compound 0.0316 µM", "result": "> 0.1", "unit": "µM"}, {"measurement": "IC50", "setting": "second compound 0.1 µM", "result": "> 0.1", "unit": "µM"}, {"measurement": "IC50", "setting": "second compound 0.316 µM", "result": "> 0.1", "unit": "µM"}, {"measurement": "IC50", "setting": "second compound 1 µM", "result": "> 0.1", "unit": "µM"}, {"measurement": "IC50", "setting": "second compound 3.16 µM", "result": "> 0.1", "unit": "µM"}, {"measurement": "IC50", "setting": "second compound 10 µM", "result": "> 0.1", "unit": "µM"}, {"measurement": "viability, T/C", "setting": "second compound 0.0316 µM, first compound 0.000316 µM", "result": 97.1, "unit": "%"}, {"measurement": "viability, T/C", "setting": "second compound 0.0316 µM, first compound 0.001 µM", "result": 107, "unit": "%"}, {"measurement": "viability, T/C", "setting": "second compound 0.0316 µM, first compound 0.00316 µM", "result": 118, "unit": "%"}, {"measurement": "viability, T/C", "setting": "second compound 0.0316 µM, first compound 0.01 µM", "result": 111, "unit": "%"}, {"measurement": "viability, T/C", "setting": "[1]", "result": 94.4, "unit": "%"}, {"measurement": "viability, T/C", "setting": "[2]", "result": 76.1, "unit": "%"}, {"measurement": "viability, T/C", "setting": "second compound 0.1 µM, first compound 0.000316 µM", "result": 98.3, "unit": "%"}, {"measurement": "viability, T/C", "setting": "second compound 0.1 µM, first compound 0.001 µM", "result": 108, "unit": "%"}, {"measurement": "viability, T/C", "setting": "second compound 0.1 µM, first compound 0.00316 µM", "result": 86.1, "unit": "%"}, {"measurement": "viability, T/C", "setting": "second compound 0.1 µM, first compound 0.01 µM", "result": 109, "unit": "%"}, {"measurement": "viability, T/C", "setting": "[3]", "result": 87.6, "unit": "%"}, {"measurement": "viability, T/C", "setting": "[4]", "result": 88, "unit": "%"}, {"measurement": "viability, T/C", "setting": "second compound 0.316 µM, first compound 0.000316 µM", "result": 90.6, "unit": "%"}, {"measurement": "viability, T/C", "setting": "second compound 0.316 µM, first compound 0.001 µM", "result": 97.8, "unit": "%"}, {"measurement": "viability, T/C", "setting": "second compound 0.316 µM, first compound 0.00316 µM", "result": 101, "unit": "%"}, {"measurement": "viability, T/C", "setting": "second compound 0.316 µM, first compound 0.01 µM", "result": 105, "unit": "%"}, {"measurement": "viability, T/C", "setting": "[5]", "result": 107, "unit": "%"}, {"measurement": "viability, T/C", "setting": "[6]", "result": 77.2, "unit": "%"}, {"measurement": "viability, T/C", "setting": "second compound 1 µM, first compound 0.000316 µM", "result": 93, "unit": "%"}, {"measurement": "viability, T/C", "setting": "second compound 1 µM, first compound 0.001 µM", "result": 92.6, "unit": "%"}, {"measurement": "viability, T/C", "setting": "second compound 1 µM, first compound 0.00316 µM", "result": 124, "unit": "%"}, {"measurement": "viability, T/C", "setting": "second compound 1 µM, first compound 0.01 µM", "result": 105, "unit": "%"}, {"measurement": "viability, T/C", "setting": "[7]", "result": 124, "unit": "%"}, {"measurement": "viability, T/C", "setting": "[8]", "result": 71.9, "unit": "%"}, {"measurement": "viability, T/C", "setting": "second compound 3.16 µM, first compound 0.000316 µM", "result": 97.5, "unit": "%"}, {"measurement": "viability, T/C", "setting": "second compound 3.16 µM, first compound 0.001 µM", "result": 102, "unit": "%"}, {"measurement": "viability, T/C", "setting": "second compound 3.16 µM, first compound 0.00316 µM", "result": 98.5, "unit": "%"}, {"measurement": "viability, T/C", "setting": "second compound 3.16 µM, first compound 0.01 µM", "result": 94.6, "unit": "%"}, {"measurement": "viability, T/C", "setting": "[9]", "result": 101, "unit": "%"}, {"measurement": "viability, T/C", "setting": "[10]", "result": 71, "unit": "%"}, {"measurement": "viability, T/C", "setting": "second compound 10 µM, first compound 0.000316 µM", "result": 87.5, "unit": "%"}, {"measurement": "viability, T/C", "setting": "second compound 10 µM, first compound 0.001 µM", "result": 93.9, "unit": "%"}, {"measurement": "viability, T/C", "setting": "second compound 10 µM, first compound 0.00316 µM", "result": 92.3, "unit": "%"}, {"measurement": "viability, T/C", "setting": "second compound 10 µM, first compound 0.01 µM", "result": 81.2, "unit": "%"}, {"measurement": "viability, T/C", "setting": "[11]", "result": 96.2, "unit": "%"}, {"measurement": "viability, T/C", "setting": "[12]", "result": 65.2, "unit": "%"}]}
